# Reference: PubChem BioAssay (NCI)
#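 Exposure lasted 48 hours, with cells grown in 96-well plates and compounds tested at five concentrations. TGI: total growth inhibition.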
# Columns and labels:
# Test in all cases: DTP human tumour cell line panel, 48 h
# [1] = test system: MOLT-4 leukemia
# [2] = test system: SNB-75 CNS
# [3] = test system: SK-MEL-5 melanoma
# [4] = test system: SF-295 CNS
# [5] = test system: MDA-MB-231 breast
# [6] = test system: MCF7 breast
# [7] = test system: IGROV1 ovarian
# [8] = test system: K-562 leukemia
# [9] = test system: NCI-H522 lung
# [10] = test system: M14 melanoma
# [11] = test system: UACC-62 melanoma
# [12] = test system: OVCAR-5 ovarian
# [13] = test system: SN12C renal
# [14] = test system: A549 NSCLC
# [15] = test system: HCT-116 colon
# [16] = test system: TK-10 renal
# [17] = test system: UACC-257 melanoma
# [18] = test system: RXF 393 renal
# [19] = test system: MALME-3M melanoma
# [20] = test system: SF-268 CNS
# [21] = test system: SF-539 CNS
# [22] = test system: NCI-H460 lung
# [23] = test system: U251 CNS
# [24] = test system: MDA-N
# [25] = test system: SNB-19 CNS
# [26] = test system: T-47D breast
# [27] = test system: A498 renal
# [28] = test system: SW-620 colon
# [29] = test system: HCC-2998 colon
# [30] = test system: COLO 205 colon
# [31] = test system: UO-31 renal
# [32] = test system: OVCAR-4 ovarian
# [33] = test system: 786-0 renal
# [34] = test system: HCT-15 colon
# [35] = test system: BT-549 breast
# [36] = test system: DU-145 prostate
# [37] = test system: NCI-H226 lung
# [38] = test system: SK-MEL-28 melanoma
# [39] = test system: PC-3 prostate
# [40] = test system: EKVX NSCLC
# [41] = test system: HL-60(TB) leukemia
# [42] = test system: NCI-H23 lung
# [43] = test system: NCI/ADR-RES ovarian
# [44] = test system: RPMI-8226 leukemia
# [45] = test system: CAKI-1 renal
# [46] = test system: SK-MEL-2 melanoma
# [47] = test system: HT29 colon
# [48] = test system: MDA-MB-435
# [49] = test system: HOP-92 NSCLC
# [50] = test system: CCRF-CEM leukemia
# [51] = test system: HS 578T breast
# [52] = test system: OVCAR-3 ovarian
# [53] = test system: LOX IMVI melanoma
# [54] = test system: KM12 colon
# [55] = test system: OVCAR-8 ovarian
# [56] = test system: ACHN renal
# [57] = test system: SK-OV-3 ovarian
# [58] = test system: HOP-62 NSCLC
smiles,measurement,setting,value
COc1ccc2nccc(/C=C/c3ccc(N(C)C)cc3)c2c1,TGI,[1],> 10 µM
same,TGI,[2],> 10 µM
same,TGI,[3],> 10 µM
same,TGI,[4],> 10 µM
same,TGI,[5],> 10 µM
same,TGI,[6],> 10 µM
same,TGI,[7],> 10 µM
same,TGI,[8],> 10 µM
same,TGI,[9],> 10 µM
same,TGI,[10],> 10 µM
same,TGI,[11],> 10 µM
same,TGI,[12],> 10 µM
same,TGI,[13],> 10 µM
same,TGI,[14],> 10 µM
same,TGI,[15],> 10 µM
same,TGI,[16],> 10 µM
same,TGI,[17],> 10 µM
same,TGI,[18],> 10 µM
same,TGI,[19],> 10 µM
same,TGI,[20],> 10 µM
same,TGI,[21],> 10 µM
same,TGI,[22],> 10 µM
same,TGI,[23],> 10 µM
same,TGI,[24],> 10 µM
same,TGI,[25],> 10 µM
same,TGI,[26],> 10 µM
same,TGI,[27],> 10 µM
same,TGI,[28],> 10 µM
same,TGI,[29],> 10 µM
same,TGI,[30],> 10 µM
same,TGI,[31],> 10 µM
same,TGI,[32],> 10 µM
same,TGI,[33],> 10 µM
same,TGI,[34],> 10 µM
same,TGI,[35],> 10 µM
same,TGI,[36],> 10 µM
same,TGI,[37],> 10 µM
same,TGI,[38],> 10 µM
same,TGI,[39],> 10 µM
same,TGI,[40],> 10 µM
same,TGI,[41],> 10 µM
same,TGI,[42],> 10 µM
same,TGI,[43],> 10 µM
same,TGI,[44],> 10 µM
same,TGI,[45],> 10 µM
same,TGI,[46],> 10 µM
same,TGI,[47],> 10 µM
same,TGI,[48],7.49 µM
same,TGI,[49],> 10 µM
same,TGI,[50],> 10 µM
same,TGI,[51],> 10 µM
same,TGI,[52],> 10 µM
same,TGI,[53],> 10 µM
same,TGI,[54],> 10 µM
same,TGI,[55],> 10 µM
same,TGI,[56],> 10 µM
same,TGI,[57],> 10 µM
same,TGI,[58],> 10 µM
COC(=O)C1=C(OC(=O)/C(=C/c2ccccc2)c2ccc([N+](=O)[O-])cc2)C(C(=O)OC)[C@@]2(O)[C@@H](C(=O)OC)[C@H](C)C[C@@H]1[C@@H]2C(=O)OC (some centres undefined),TGI,[1],> 100 µM
same,TGI,[2],> 100 µM
same,TGI,[3],> 100 µM
same,TGI,[4],> 100 µM
same,TGI,[5],> 100 µM
same,TGI,[6],> 100 µM
same,TGI,[7],> 100 µM
same,TGI,[8],> 100 µM
same,TGI,[9],> 100 µM
same,TGI,[10],> 100 µM
same,TGI,[11],> 100 µM
same,TGI,[12],> 100 µM
same,TGI,[13],> 100 µM
same,TGI,[14],> 100 µM
same,TGI,[15],> 100 µM
same,TGI,[16],> 100 µM
same,TGI,[17],> 100 µM
same,TGI,[18],> 100 µM
same,TGI,[19],> 100 µM
same,TGI,[20],> 100 µM
same,TGI,[21],> 100 µM
same,TGI,[22],> 100 µM
same,TGI,[23],> 100 µM
same,TGI,[24],> 100 µM
same,TGI,[25],> 100 µM
same,TGI,[26],> 100 µM
same,TGI,[27],> 100 µM
same,TGI,[28],> 100 µM
same,TGI,[29],> 100 µM
same,TGI,[30],> 100 µM
same,TGI,[31],> 100 µM
same,TGI,[32],> 100 µM
same,TGI,[33],> 100 µM
same,TGI,[34],> 100 µM
same,TGI,[35],> 100 µM
same,TGI,[36],> 100 µM
same,TGI,[37],> 100 µM
same,TGI,[38],> 100 µM
same,TGI,[39],> 100 µM
same,TGI,[40],> 100 µM
same,TGI,[41],> 100 µM
same,TGI,[42],> 100 µM
same,TGI,[43],> 100 µM
same,TGI,[44],> 100 µM
same,TGI,[45],> 100 µM
same,TGI,[46],> 100 µM
same,TGI,[47],> 100 µM
same,TGI,[48],> 100 µM
same,TGI,[49],> 100 µM
same,TGI,[50],> 100 µM
same,TGI,[51],> 100 µM
same,TGI,[52],> 100 µM
same,TGI,[53],> 100 µM
same,TGI,[54],> 100 µM
same,TGI,[55],> 100 µM
same,TGI,[56],> 100 µM
same,TGI,[57],> 100 µM
same,TGI,[58],> 100 µM
CC(CN(C)C)C(C#N)(c1ccccc1)c1ccccc1 (centres undefined),TGI,[1],> 100 µM
same,TGI,[2],> 100 µM
same,TGI,[3],> 100 µM
same,TGI,[4],> 100 µM
same,TGI,[5],> 100 µM
same,TGI,[6],> 100 µM
same,TGI,[7],> 100 µM
same,TGI,[8],> 100 µM
same,TGI,[9],> 100 µM
same,TGI,[10],> 100 µM
same,TGI,[11],> 100 µM
same,TGI,[12],> 100 µM
same,TGI,[13],> 100 µM
same,TGI,[14],> 100 µM
same,TGI,[15],> 100 µM
same,TGI,[16],> 100 µM
same,TGI,[17],> 100 µM
same,TGI,[18],> 100 µM
same,TGI,[19],> 100 µM
same,TGI,[20],> 100 µM
same,TGI,[21],> 100 µM
same,TGI,[22],> 100 µM
same,TGI,[23],> 100 µM
same,TGI,[24],> 100 µM
same,TGI,[25],> 100 µM
same,TGI,[26],> 100 µM
same,TGI,[27],> 100 µM
same,TGI,[28],> 100 µM
same,TGI,[29],> 100 µM
same,TGI,[30],> 100 µM
same,TGI,[31],> 100 µM
same,TGI,[32],> 100 µM
same,TGI,[33],> 100 µM
same,TGI,[34],> 100 µM
same,TGI,[35],> 100 µM
same,TGI,[36],> 100 µM
same,TGI,[37],> 100 µM
same,TGI,[38],> 100 µM
same,TGI,[39],> 100 µM
same,TGI,[40],> 100 µM
same,TGI,[41],> 100 µM
same,TGI,[42],> 100 µM
same,TGI,[43],> 100 µM
same,TGI,[44],> 100 µM
same,TGI,[45],> 100 µM
same,TGI,[46],> 100 µM
same,TGI,[47],> 100 µM
same,TGI,[48],> 100 µM
same,TGI,[49],> 100 µM
same,TGI,[50],> 100 µM
same,TGI,[51],> 100 µM
same,TGI,[52],> 100 µM
same,TGI,[53],> 100 µM
same,TGI,[54],> 100 µM
same,TGI,[55],> 100 µM
same,TGI,[56],> 100 µM
same,TGI,[57],> 100 µM
same,TGI,[58],> 100 µM
